Measurements from patent publication US20110160256A1, “INHIBITORS OF AKT ACTIVITY” (priority 2008, published 2011).
“And” between values parts separate entries of the source, which are not always exact repeats. Equal entries are not always repeated.

Biological target: T1, full length AKT1 (Homo sapiens, UniProt P31749)
T1 construct: Full-length human AKT1 gene was amplified by PCR; His6 tag from the pFastBacHTb vector (own knowledge: N-terminal His6, spacer and TEV site; supported by the nickel purification) (N); made in house; host or cells: baculovirus-infected insect cells (virus produced in Sf9; T. ni cells infected; purification text says sf9 cells)
Assay: Full-length AKT enzyme assay (substrate phosphorylation, SPA)
Assay type: biochemical
Conditions: in at least one experimental run; 10 nM activated AKT enzyme, 4 uM ATP; pIC50 = -log(IC50), IC50 in molar units; read-out: pIC50 value against full length AKT1 (converted)
Description: Cloning of Full-Length Human (FL) AKT1:
Full-length human AKT1 gene was amplified by PCR from a plasmid containing myristylated-AKT1-ER (gift from Robert T. Abraham, Duke University under MTA, described in Klippel et al. in Molecular and Cellular Biology 1998 Volume 18 p. 5699) using the 5′ primer: SEQ. ID NO: 2 5′ […] 3′ and the 3′ primer: SEQ. ID NO: 3 […] 3′. The 5′ primer included a BamHI site and the 3′ primer included an XhoI site for cloning purposes. The resultant PCR product was subcloned in pcDNA3 as a BamHI/XhoI fragment. A mutation in the sequence (TGC) coding for a Cysteine^25 was converted to the wild-type AKT1 sequence (CGC) coding for an Arginine^25 by site-directed mutagenesis using the QuikChange® Site Directed Mutagenesis Kit (Stratagene). The AKT1 mutagenic primer: SEQ. ID NO: 4 5′ […] and selection primer: SEQ. […] For expression/purification purposes, AKT1 was isolated as a BamHI/XhoI fragment and cloned into the BamHI/XhoI sites of pFastbacHTb (Invitrogen).
Expression of FL Human AKT1:
Expression was done using the BAC-to-BAC Baculovirus Expression System from Invitrogen (catalog #10359-016). […]
Compounds of the present invention were tested for AKT 1, 2, and 3 protein serine kinase inhibitory activity in substrate phosphorylation assays. […] Substrate phosphorylation was detected by the following procedure. […]

T1 sequence (P31749 whole entry): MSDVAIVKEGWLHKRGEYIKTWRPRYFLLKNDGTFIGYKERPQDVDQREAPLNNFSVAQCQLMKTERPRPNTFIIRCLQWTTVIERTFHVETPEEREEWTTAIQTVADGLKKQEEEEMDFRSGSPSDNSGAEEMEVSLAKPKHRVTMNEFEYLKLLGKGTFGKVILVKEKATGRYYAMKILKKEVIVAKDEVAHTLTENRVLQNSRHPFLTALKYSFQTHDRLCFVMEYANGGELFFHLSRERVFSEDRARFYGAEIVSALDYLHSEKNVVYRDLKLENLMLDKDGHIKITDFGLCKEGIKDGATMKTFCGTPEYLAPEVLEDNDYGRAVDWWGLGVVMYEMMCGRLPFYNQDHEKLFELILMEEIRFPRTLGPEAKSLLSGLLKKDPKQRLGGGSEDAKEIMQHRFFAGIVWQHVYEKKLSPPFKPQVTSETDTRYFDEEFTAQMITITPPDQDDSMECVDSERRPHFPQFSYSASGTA

IC50 | Structure (SMILES)
≤ 0.501 µM | Cn1nccc1-c1csc(C(=O)NC(CN)Cc2ccccc2)n1 (centres unmarked) [Example 3, N-[2-amino-1-(phenylmethyl)ethyl]-4-(1-methyl-1H-pyrazol-5-yl)-1,3-thiazole-2-carboxamide]
≤ 0.501 µM and 0.501 µM | Cn1nccc1-c1csc(C(=O)N[C@H](CN)Cc2cccc(F)c2)n1 [Example 1, N-{(1S)-2-amino-1-[(3-fluorophenyl)methyl]ethyl}-4-(1-methyl-1H-pyrazol-5-yl)-1,3-thiazole-2-carboxamide]
